# Literature values, collected in patent US12297168B2, “Compounds useful for treating liver diseases” (ABIONYX PHARMA SA, priority 2019, dated 2025).
# Tested on: NASH resolution without worsening of fibrosis
# Conditions: Phase 3 trial, adults with NASH and fibrosis (interim analysis, RESOLVE-IT)
structure (smiles),measurement,value
CSc1ccc(C(=O)/C=C/c2cc(C)c(OC(C)(C)C(=O)O)c(C)c2)cc1 [elafibranor],effect on the primary endpoint of NASH resolution without worsening of fibrosis,did not demonstrate a statistically significant effect
